Reference: PubChem BioAssay (NCI)
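These data come from cells grown in 96-well plates and exposed to compound for 48 hours at five concentrations. TGI denotes the concentration required for complete inhibition of growth.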 *1 amine or outer side, *2 acyl side, *3 side chain or, on linkers, in order; H or OH if unused. Where a SMILES comes first, the peptide text is derived from it. [ ]: non-standard residue; d: D form. The star is where a group is joined. X31 = CC(=O)N(C)SCC(N[*:1])C(=O)[*:2]; X47 = CC(=O)N(C)SCC(N*)/C(O)=N\O; Cbz = O=C(OCc1ccccc1)*; Boc = CC(C)(C)OC(=O)*; Bz = O=C(c1ccccc1)*; Bn = c1ccc(C*)cc1; For = O=C*

Assays:
Assay in all cases: NCI-60 cell line screen, 48 h
[1] = test system: ACHN renal
[2] = test system: HOP-62 NSCLC
[3] = test system: KM12 colon
[4] = test system: LOX IMVI melanoma
[5] = test system: MALME-3M melanoma
[6] = test system: NCI-H226 lung
[7] = test system: SF-539 CNS
[8] = test system: SK-MEL-28 melanoma
[9] = test system: SNB-19 CNS
[10] = test system: SNB-75 CNS

SMILES	TGI [1]	TGI [2]	TGI [3]	TGI [4]	TGI [5]	TGI [6]	TGI [7]	TGI [8]	TGI [9]	TGI [10]
CC(NC(=O)C(Cc1ccc(OC(=O)c2ccccc2)cc1)NC(=O)OC(C)(C)C)C(=O)NC(Cc1ccccc1)C(=O)NCC(N)=O (centres undefined) (Boc-Y(Bz)AFG-NH2; configuration not given here)	54.6 µM	31.4 µM	> 100 µM	49.5 µM	42 µM	51 µM	68.3 µM	> 100 µM	36.5 µM	49.6 µM
COc1cc(Cc2cc3c(c(C(=O)O)c2Br)OCO3)cc(OC)c1OC	> 100 µM	> 100 µM	> 100 µM	> 100 µM	> 100 µM	> 100 µM	91.1 µM	> 100 µM	> 100 µM	> 100 µM
CC1(C)[C@H](C(=O)O)N2C(=O)[C@@H](NS(=O)(=O)c3ccc([N+](=O)[O-])cc3)[C@H]2S1(=O)=O	> 100 µM	> 100 µM	> 100 µM	> 100 µM	> 100 µM	> 100 µM	> 100 µM	> 100 µM	> 100 µM	> 100 µM
O=C(O)c1ccccc1NC(c1ccccc1)c1ccc2cccnc2c1O (centres undefined)	> 100 µM	> 100 µM	> 100 µM	43.2 µM	> 56.4 µM	> 28.5 µM	22.1 µM	44.2 µM	> 100 µM	> 86.7 µM
COc1cc(C2SC(N)=Nc3c2c(C)nn3C(=O)c2ccccc2O)cc(OC)c1OC (centres undefined)	> 10 µM	> 10 µM	> 10 µM	> 10 µM	> 10 µM	> 10 µM	> 10 µM	> 10 µM	> 10 µM	6.85 µM
COc1ccc(/C=C2\CCCC(CN(C)C)C2=O)cc1 (centres undefined)	5.86 µM	35.7 µM	2.75 µM	4 µM	6.95 µM	33.5 µM	31.1 µM	3.77 µM	18 µM	21.6 µM
CC(=O)Nc1ccc(Nc2cc(=O)[nH]c(=O)[nH]2)cc1	> 100 µM	> 100 µM	> 100 µM	> 100 µM	> 100 µM	> 100 µM	> 100 µM	> 100 µM	> 100 µM	> 100 µM
CC(C)(C)OC(=O)NCCCCC(N)C(N)=O (centres undefined)	> 100 µM	> 100 µM	> 100 µM	> 100 µM	> 100 µM	> 100 µM	> 100 µM	> 100 µM	> 100 µM	> 100 µM
CC1(C)CCC[C@@]2(C)C1CCC1(C)C(CCc3ccoc3)/C(=C/OS(=O)(=O)O)CCC12 (some centres undefined) (tested in a mixture with another compound)	> 100 µM	> 100 µM	> 100 µM	> 100 µM	> 100 µM	> 100 µM	> 100 µM	> 100 µM	> 100 µM	> 100 µM
O=c1cc(NCCCCCO)[nH]c(=O)[nH]1	> 100 µM	> 100 µM	> 100 µM	> 100 µM	> 100 µM	> 100 µM	> 100 µM	> 100 µM	> 100 µM	> 100 µM
Cc1ccc(-c2nc(C)c(C(=O)Nc3ccc(Cl)cc3)s2)cc1	42 µM	26.2 µM	> 100 µM	> 100 µM	> 100 µM	48.5 µM	> 100 µM	> 100 µM	43.2 µM	28.3 µM
C=C(C)C(=O)O[C@H]1C/C(CO)=C/CCC(=C)C(OC(C)=O)[C@H]2OC(=O)C(=C)[C@H]12 (some centres undefined)	22.9 µM	73.8 µM	33.3 µM	27 µM	26.7 µM	> 100 µM	33.6 µM	20.6 µM	> 100 µM	9.12 µM
Cc1ccc(S(=O)(=O)c2c(N)c3nc4ccccc4n3c3nc4ccccc4nc23)cc1	> 100 µM	> 100 µM	> 100 µM	> 100 µM	> 100 µM	> 100 µM	> 100 µM	> 100 µM	> 100 µM	> 100 µM
Nc1cc2c3c(c1)Oc1cc(N)cc4c1C3c1c(cc(N)cc1O4)O2	> 51.3 µM	> 88.1 µM	> 84.2 µM	41.6 µM	22.8 µM	12.8 µM	46.2 µM	> 100 µM	> 100 µM	> 48.8 µM
O=C(Nn1c(-c2ccccc2)nc2ccccc2c1=O)c1ccc(CS)cc1	> 100 µM	> 100 µM	> 100 µM	5.38 µM	> 100 µM	> 100 µM	67.7 µM	> 100 µM	> 100 µM	> 100 µM
CC(=O)OC1=c2ccccc2=C(O)C2C1C=NN2C(C)=O (centres undefined)	> 100 µM	> 100 µM	> 100 µM	> 100 µM	> 100 µM	> 100 µM	> 100 µM	> 100 µM	> 100 µM	> 100 µM
NCCSc1nc2ccccc2s1	> 100 µM	62.3 µM	> 100 µM	90.8 µM	> 100 µM	92.9 µM	37.6 µM	> 100 µM	> 100 µM	62.1 µM
O=P1(C(O)/C=C/c2ccccc2)N(Cc2ccccc2)[C@H](c2ccccc2)[C@@H](c2ccccc2)N1Cc1ccccc1 (some centres undefined)	> 95.4 µM	> 93.3 µM	> 100 µM	> 72.5 µM	99.7 µM	> 100 µM	> 100 µM	> 100 µM	> 100 µM	> 83.6 µM
C=CCN1CCC(OC(=O)C(O)(C#CC)C2CCCC2)CC1 (centres undefined)	> 100 µM	> 100 µM	> 100 µM	> 100 µM	> 100 µM	> 100 µM	> 100 µM	> 100 µM	> 100 µM	> 100 µM

SMILES	TGI [1]	TGI [2]	TGI [3]	TGI [4]	TGI [5]	TGI [6]	TGI [7]	TGI [8]	TGI [9]	TGI [10]
CC(=O)N(C)SCC(NC(=O)C(Cc1ccccc1)NC(=O)OCc1ccccc1)C(=O)NC(Cc1ccccc1)C(=O)NC(Cc1cn(C=O)c2ccccc12)C(=O)NC(CCCCNC(=O)OCc1ccccc1)C(=O)NC(C(=O)NC(CSN(C)C(C)=O)/C(O)=N\O)C(C)OCc1ccccc1 (centres undefined) (Cbz-F[X31]FW(For)K(Cbz)T(Bn)-X47; configuration not given here)	> 100 µM	> 100 µM	> 100 µM	> 100 µM	> 100 µM	> 100 µM	> 100 µM	> 100 µM	> 100 µM	> 100 µM
CC1(C)CC(=O)C(CCC(=O)/C=C/c2ccccc2)C(=O)C1	> 100 µM	> 100 µM	> 100 µM	> 100 µM	> 100 µM	> 100 µM	> 100 µM	> 100 µM	> 100 µM	> 100 µM
Cc1ccc(C2=Nc3cc(C)c(Cl)cc3S(=O)(=O)NN2)cc1	> 100 µM	> 100 µM	> 100 µM	> 100 µM	> 100 µM	> 100 µM	> 100 µM	> 100 µM	> 100 µM	> 100 µM
CC1CC(C)C(O)C(C2CC(CC(=O)NC3CCCCC3)CC(=O)O2)C1 (centres undefined)	> 100 µM	> 100 µM	> 100 µM	> 100 µM	> 100 µM	> 100 µM	> 100 µM	> 100 µM	> 100 µM	> 100 µM
CC1=NCCN=C(C)C1N=Nc1ccc2nc(C)[nH]c2c1	32.1 µM	61.1 µM	30.9 µM	98.8 µM	41.5 µM	44.1 µM	42.5 µM	24.2 µM	28.7 µM	33.1 µM
CO/N=C(\C)c1ccc(Nc2c3ccccc3nc3occc23)cc1	35.2 µM	16.2 µM	12.5 µM	18.2 µM	0.895 µM	28.5 µM	2.28 µM	8.62 µM	45.1 µM	3.29 µM
O=C(CN1CCN(Cc2ccccc2)CC1)c1ccc2[nH]c(=O)oc2c1	> 100 µM	> 100 µM	> 100 µM	> 100 µM	51.2 µM	> 100 µM	> 100 µM	> 100 µM	> 100 µM	> 100 µM
CN(C)c1ccc(/C=c2/c3ccccc3n3c2c2ccccc2[n+]3C)cc1	2.88 µM	16.2 µM	10.7 µM	1.98 µM	1.47 µM	15.3 µM	3.12 µM	2.08 µM	4.76 µM	8.29 µM
CCOC(=O)c1cnn2c1ncc1c(=O)n(NC(N)=O)ccc12	> 100 µM	> 100 µM	> 100 µM	> 100 µM	> 100 µM	> 100 µM	> 100 µM	> 100 µM	> 100 µM	> 100 µM
Cc1cc(N(CCC#N)CCC#N)ccc1/C=C1N=C(/C=C\c2ccccc2)OC\1=O	> 100 µM	> 100 µM	> 100 µM	> 100 µM	> 100 µM	> 100 µM	> 100 µM	> 100 µM	> 100 µM	> 100 µM
N#Cc1c(N2CCCC2)nsc1NCc1ccccc1	> 100 µM	> 100 µM	> 100 µM	> 100 µM	> 100 µM	> 100 µM	> 100 µM	> 100 µM	> 100 µM	> 100 µM
C=C(CN(C)C)C(=O)c1ccccc1C	57.6 µM	> 100 µM	> 100 µM	> 100 µM	36 µM	> 100 µM	> 60.8 µM	62.4 µM	> 100 µM	> 100 µM
COC(=O)CCc1cc(OC)c(O)c(C(Cc2ccc(OC)c(OC)c2)C(=O)OC)c1 (centres undefined)	> 100 µM	> 100 µM	> 100 µM	> 100 µM	> 100 µM	> 100 µM	> 100 µM	> 100 µM	> 100 µM	> 100 µM
Cc1c(C#N)c2nnn(-c3ccc(Cl)cc3)c(=O)n2c1-c1ccccc1	83.4 µM	3.73 µM	11.6 µM	12.9 µM	34.4 µM	2.02 µM	0.6 µM	> 51.7 µM	> 40.5 µM	39.7 µM
COC1=C2CC(C)CC(OC)C(O)C(C)/C=C(\C)C(OC(N)=O)C(OC)/C=C\C=C(/C)C(=O)NC(=C(C=NC(C)(C)C)C1=O)C2=O (centres undefined)		41 µM	15 µM	22.3 µM	5.23 µM	13.8 µM	24.2 µM	11.7 µM	26.9 µM	6.15 µM
C/C(CC/C(C)=N/O)=N\O	> 100 µM	> 100 µM	> 100 µM	> 100 µM	> 100 µM	> 100 µM	> 100 µM	> 100 µM	> 100 µM	> 100 µM
NCC(=O)NC1(c2cc3ccccc3s2)CCCCC1	56.9 µM	> 100 µM	> 100 µM	> 100 µM	36.3 µM	69.5 µM	> 100 µM	39.8 µM	> 100 µM	83.7 µM
ClCCCN(CCCCl)c1ccc(C=Nc2cccc(Cl)c2)cc1	> 100 µM	> 75.1 µM	> 80.6 µM	> 100 µM	44.3 µM	8.67 µM	> 100 µM	> 100 µM	> 100 µM	> 100 µM
O=C(Nc1nnc(-c2ccccc2)o1)C(SC(=S)N1CCCCC1)c1ccccc1 (centres undefined)	75.7 µM	92.1 µM	> 100 µM	18 µM	> 100 µM	93.5 µM	71.3 µM	> 100 µM	> 100 µM	> 100 µM
